Among the data in patent publication US8076352B2, “Administration of carboline derivatives useful in the treatment of cancer and other diseases” (PTC Therapeutics, Inc., priority 2004, dated 2011) are EC50 values, retold here.

Bounds are passed on as bounds.

The EC50 is the midpoint of the concentration-response curve. Lower therefore signals higher potency in that assay.

The subject of this experiment is hypoxia-inducible endogenous VEGF expression in HeLa cells. The experiment is described as follows: Hypoxia-inducible endogenous VEGF expression, VEGF ELISA of conditioned media (dose-response EC50). Format: cell-based. The conditions noted are these: HeLa cells, hypoxic conditions (1% O2). Summed up: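 HeLa cells were cultured 24-48 h under hypoxia (1% O2, 5% CO2, balance N2) with or without compound. Conditioned-media VEGF protein was measured by ELISA against a standard curve. EC50 and CC50 come from percentage-inhibition curves over, e.g., seven concentrations, with maximal inhibition set at 100%.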
Background: ELISA stands for enzyme-linked immunosorbent assay.

With `Cc1ccc(C2c3[nH]c4ccc(Br)cc4c3CCN2C(=O)Oc2ccc(F)cc2)cc1` (stereo not shown) [Compound 398], the EC50 (Homo sapiens) is less than 8 nM. On the same count and under the same terms, the result for `C=CCOc1ccc(C2c3[nH]c4ccc(Cl)cc4c3CCN2C(=O)OCCF)cc1` (stereo not shown) [Compound 399] reads less than 8 nM.

Take `C=CCOc1ccc(C2c3[nH]c4ccc(Cl)cc4c3CCN2C(=O)Oc2ccc(Cl)cc2)cc1` (stereo not shown) [Compound 400]: the EC50 (Homo sapiens) is less than 8 nM.

Under “Homo sapiens”, `COc1ccc(C2c3[nH]c4ccc(Cl)cc4c3CCN2C(=O)Oc2ccc(F)cc2)cc1` (stereo not shown) [Compound 401] registered an EC50 of less than 8 nM. Regarding `Cc1ccc(C2c3[nH]c4ccc(Br)cc4c3CCN2C(=O)Oc2ccc(F)cc2)cc1` (stereo not shown) [Compound 403], the EC50 is less than 8 nM. On to `CCOC(=O)N1CCc2c([nH]c3ccc(Cl)cc23)C1c1ccc(OCCOCCOC)cc1` (stereo not shown) [Compound 404], for which the EC50 (Homo sapiens) is less than 8 nM. Regarding `O=C(Oc1ccc(Cl)cc1)N1CCc2c([nH]c3ccc(Br)cc23)C1c1ccc(C(F)(F)F)cc1` (stereo not shown) [Compound 405], the EC50 (Homo sapiens) is less than 8 nM. The same measure, in the same setting: the result for `C=CCOc1ccc(C2c3[nH]c4ccc(Cl)cc4c3CCN2C(=O)OCCC)cc1` (stereo not shown) [Compound 406] reads less than 8 nM. Same read-out and setting: the result for `COCCOc1ccc(C2c3[nH]c4ccc(Cl)cc4c3CCN2C(=O)OCC(C)C)cc1` (stereo not shown) [Compound 407] reads less than 8 nM; that for `C=CCOc1ccc(C2c3[nH]c4ccc(Cl)cc4c3CCN2C(=O)OC(C)C)cc1` (stereo not shown) [Compound 408], less than 8 nM; that for `C=CCOc1ccc(C2c3[nH]c4ccc(Cl)cc4c3CCN2C(=O)Oc2ccc(F)cc2)cc1` (stereo not shown) [Compound 409], less than 8 nM. Take `COc1ccc(C2c3[nH]c4ccc(Cl)cc4c3CCN2C(=O)Oc2ccc(F)cc2)cc1` (stereo not shown) [Compound 410]: the EC50 was less than 8 nM. Consider `COCCOc1ccc(C2c3[nH]c4ccc(Cl)cc4c3CCN2C(=O)OC(C)C)cc1` (stereo not shown) [Compound 411], for which the EC50 (Homo sapiens) was less than 8 nM. On the same count and under the same terms, the result for `C=CCOc1ccc(C2c3[nH]c4ccc(Cl)cc4c3CCN2C(=O)OCc2ccccc2)cc1` (stereo not shown) [Compound 412] reads less than 8 nM. Still for that read-out and setting: then `C=CCOc1ccc(C2c3[nH]c4ccc(Cl)cc4c3CCN2C(=O)Oc2ccccc2)cc1` (stereo not shown) [Compound 413], with less than 8 nM; and `C=CCOc1ccc(C2c3[nH]c4ccc(Cl)cc4c3CCN2C(=O)OCC(C)C)cc1` (stereo not shown) [Compound 414], with less than 8 nM. Still for that read-out and setting: the result for `CC(=O)N1CCN(CC(O)COc2ccc(C3c4[nH]c5ccc(Cl)cc5c4CCN3C(=O)Oc3ccc(Cl)cc3)cc2)CC1` (stereo not shown) [Compound 415] reads less than 8 nM; that for `Clc1ccc2[nH]c3c(c2c1)CCNC3CCc1ccccc1` (stereo not shown) [Compound 416], less than 8 nM. For `O=C(Oc1ccc(Cl)cc1)N1CCc2c([nH]c3ccc(Cl)cc23)C1c1ccc(OCCCn2ccnn2)cc1` (stereo not shown) [Compound 417], the EC50 (Homo sapiens) was less than 8 nM. On the same count and under the same terms, then `COCCOc1ccc(C2c3[nH]c4ccc(Cl)cc4c3CCN2C(=O)Oc2ccc(Cl)cc2)cc1` (stereo not shown) [Compound 418], with less than 8 nM; and `COCCOc1ccc(C2c3[nH]c4ccc(Cl)cc4c3CCN2C(=O)OCc2ccccc2)cc1` (stereo not shown) [Compound 419], with less than 8 nM. On the same count and under the same terms, the result for `CCOC(=O)N1CCc2c([nH]c3ccc(Br)cc23)C1c1ccc(CNCCOC)cc1` (stereo not shown) [Compound 420] reads less than 8 nM; that for `O=C1OCC(COc2ccc(C3c4[nH]c5ccc(Cl)cc5c4CCN3C(=O)Oc3ccc(Cl)cc3)cc2)O1` (stereo not shown) [Compound 421], less than 8 nM. In turn, `COCCOc1ccc(C2c3[nH]c4ccc(Cl)cc4c3CCN2C(=O)OCCF)cc1` (stereo not shown) [Compound 423] displayed an EC50 (Homo sapiens) of less than 8 nM. With `CC(C)(C)OC(=O)N1CCCC1C(=O)Oc1ccc(C2c3[nH]c4ccc(Cl)cc4c3CCN2C(=O)OC(C)(C)C)cc1` (stereo not shown) [Compound 424], the EC50 (Homo sapiens) is less than 8 nM. Take `CCOC(=O)N1CCc2c([nH]c3ccc(Br)cc23)C1c1ccc(C(=O)N2CCN(CC)CC2)cc1` (stereo not shown) [Compound 425]: the EC50 (Homo sapiens) was less than 8 nM. `O=C(Oc1ccc(F)cc1)N1CCc2c([nH]c3ccc(Br)cc23)C1c1ccc(C(F)(F)F)cc1` (stereo not shown) [Compound 426] yielded an EC50 of less than 8 nM. `O=C(Oc1ccc(Cl)cc1)N1CCc2c([nH]c3ccc(Cl)cc23)C1c1ccc(OCCCN2CCCC2)cc1` (stereo not shown) [Compound 429] showed an EC50 (Homo sapiens) of less than 8 nM.

Take `CCOC(=O)N1CCc2c([nH]c3ccc(Br)cc23)C1c1ccc(CO)cc1` (stereo not shown) [Compound 430]: where the note is “Homo sapiens”, the EC50 is less than 8 nM. The same measure, in the same setting: the result for `COc1ccc(OC(=O)N2CCc3c([nH]c4ccc(Br)cc34)C2c2cnc(N(C)C)nc2)cc1` (stereo not shown) [Compound 431] reads less than 8 nM. On the same count and under the same terms, then `C=CCOc1ccc(C2c3[nH]c4ccc(Cl)cc4c3CCN2C(=O)Oc2ccc(OC)cc2)cc1` (stereo not shown) [Compound 432], with less than 8 nM; and `O=C(Oc1ccc(Cl)cc1)N1CCc2c([nH]c3ccc(Cl)cc23)C1c1ccc(OCCCN2CCCCC2)cc1` (stereo not shown) [Compound 433], with less than 8 nM.

Regarding `CCOC(=O)N1CCc2c([nH]c3ccc(Br)cc23)C1c1ccc(C(F)(F)F)cc1` (stereo not shown) [Compound 434], the EC50 (Homo sapiens) was less than 8 nM.

Take `CCOC(=O)N1CCc2c([nH]c3ccc(Br)cc23)C1c1cnc(N(C)C)nc1` (stereo not shown) [Compound 435]: the EC50 (Homo sapiens) is less than 8 nM. As for `COCCOc1ccc(C2c3[nH]c4ccc(Cl)cc4c3CCN2C(=O)Oc2ccccc2)cc1` (stereo not shown) [Compound 436], the EC50 (Homo sapiens) is less than 8 nM. `CCOC(=O)N1CCc2c([nH]c3ccc(Br)cc23)C1c1ccc(C(=O)NCCOC)cc1` (stereo not shown) [Compound 438] registered an EC50 (Homo sapiens) of less than 8 nM. The same measure, in the same setting: the result for `CC/C=C/CCC1c2[nH]c3ccc(Cl)cc3c2CCN1C(=O)OCC` (stereo not shown) [Compound 439] reads less than 8 nM; that for `O=C(Oc1ccc(Cl)cc1)N1CCc2c([nH]c3ccc(Cl)cc23)C1c1ccc(NC2CCOCC2)cc1` (stereo not shown) [Compound 440], less than 8 nM; that for `CCOC(=O)N1CCc2c([nH]c3ccc(Cl)cc23)C1c1ccc(C(=O)N2COCC2(C)C)cc1` (stereo not shown) [Compound 441], 8 to 40 nM. Take `CCOC(=O)N1CCc2c([nH]c3ccc(Cl)cc23)C1CC(C)SC` (stereo not shown) [Compound 442]: the EC50 (Homo sapiens) fell in the range of 8 to 40 nM.

For `CNc1ncc(C2c3[nH]c4ccc(Br)cc4c3CCN2c2ncccn2)cn1` (stereo not shown) [Compound 443], under “Homo sapiens”, the EC50 lay in the range of 8 to 40 nM.

Turning to `O=C(Oc1ccc(Cl)cc1)N1CCc2c([nH]c3ccc(Cl)cc23)C1c1ccc(F)cc1` (stereo not shown) [Compound 444], the EC50 (Homo sapiens) is 8 to 40 nM.

The molecule `COc1ccc(OC(=O)N2CCc3c([nH]c4ccc(Cl)cc34)C2c2cnc(N(C)C)nc2)cc1` (stereo not shown) [Compound 445] returned an EC50 (Homo sapiens) of 8 to 40 nM. For `COc1ccc(C2c3[nH]c4ccc(Cl)cc4c3CCN2C(=O)Cc2ccc(Cl)cc2)cc1` (stereo not shown) [Compound 447], for the setting “Homo sapiens”, the EC50 lay in the range of 8 to 40 nM. `CCOC(=O)N1CCc2c([nH]c3ccc(Cl)cc23)C1c1ccc(OCCCN2CCCC2)cc1` (stereo not shown) [Compound 449] gave an EC50 (Homo sapiens) of 8 to 40 nM.

Consider `O=C(Oc1ccc(Cl)cc1)N1CCc2c([nH]c3ccc(Cl)cc23)C1c1ccc(S(=O)(=O)N2CCOCC2)cc1` (stereo not shown) [Compound 450], for which the EC50 lay within 8 to 40 nM.

On to `CC(C)(C)OC(=O)N[C@@H](Cc1ccccc1)C(=O)Oc1ccc(C2c3[nH]c4ccc(Cl)cc4c3CCN2C(=O)OC(C)(C)C)cc1` (stereo partly shown) [Compound 451], for which the EC50 (Homo sapiens) fell in the range of 8 to 40 nM. Still for that read-out and setting: the result for `O=C(Oc1ccc(F)cc1)N1CCc2c([nH]c3ccc(Cl)cc23)C1c1ccc(F)cc1` (stereo not shown) [Compound 452] reads 8 to 40 nM; that for `CCOC(=O)N1CCC(NC(=O)c2ccc(C3c4[nH]c5ccc(Cl)cc5c4CCN3C(=O)OCC)cc2)CC1` (stereo not shown) [Compound 453], 8 to 40 nM; that for `O=C(CN1CCOCC1)Nc1ccc(C2c3[nH]c4ccc(Cl)cc4c3CCN2C(=O)Oc2ccc(Cl)cc2)cc1` (stereo not shown) [Compound 454], 8 to 40 nM. Still for that read-out and setting: the result for `COc1ccc(OC(=O)N2CCc3c([nH]c4ccc(Cl)cc34)C2c2ccc(S(=O)(=O)N3CCOCC3)cc2)cc1` (stereo not shown) [Compound 455] reads 8 to 40 nM; that for `CN(C)CCCOc1ccc(C2c3[nH]c4ccc(Cl)cc4c3CCN2C(=O)OCCF)cc1` (stereo not shown) [Compound 456], 8 to 40 nM; that for `Nc1ncc(C2c3[nH]c4ccc(Cl)cc4c3CCN2C(=O)Oc2ccc(Cl)cc2)cn1` (stereo not shown) [Compound 457], 8 to 40 nM. The molecule `CCOC(=O)N1CCc2c([nH]c3ccc(Cl)cc23)C1c1ccc(OCCCN(C)C)cc1` (stereo not shown) [Compound 458] had an EC50 (Homo sapiens) of 8 to 40 nM. `CC(C)OC(=O)N1CCc2c([nH]c3ccc(Cl)cc23)C1c1ccc(OCCCN(C)C)cc1` (stereo not shown) [Compound 459]: the EC50 (Homo sapiens) was in the range of 8 to 40 nM.

For the setting “Homo sapiens”, `O=C(Oc1ccc(Cl)cc1)N1CCc2c([nH]c3ccc(Cl)cc23)C1c1ccc(OCC2CO2)cc1` (stereo not shown) [Compound 460] yielded an EC50 of 8 to 40 nM. The same measure, in the same setting: the result for `CCOC(=O)N1CCc2c([nH]c3ccc(Cl)cc23)C1c1ccc(C(=O)NCC2COC(C)(C)O2)cc1` (stereo not shown) [Compound 461] reads 8 to 40 nM; that for `O=C(Oc1ccc(Cl)cc1)N1CCc2c([nH]c3ccc(Cl)cc23)C1c1ccc(OCC(O)CN2CCCC2)cc1` (stereo not shown) [Compound 462], 8 to 40 nM. On the same count and under the same terms, the result for `CC(=O)Oc1ccc(C2c3[nH]c4ccc(Cl)cc4c3CCN2C(=O)Oc2ccc(Cl)cc2)cc1` (stereo not shown) [Compound 463] reads 8 to 40 nM; that for `COc1ccc(C2c3[nH]c4ccc(Cl)cc4c3CCN2C(=O)c2ccc(-c3ccccc3)cc2)cc1` (stereo not shown) [Compound 464], 8 to 40 nM; that for `COCCOc1ccc(C2c3[nH]c4ccc(Cl)cc4c3CCN2C(=O)Oc2ccc(OC)cc2)cc1` (stereo not shown) [Compound 465], 8 to 40 nM.

As to `CCOC(=O)N1CCc2c([nH]c3ccc(Br)cc23)C1c1ccc(C(=O)N2CCN(CCO)CC2)cc1` (stereo not shown) [Compound 466], under “Homo sapiens”, the EC50 was in the range of 8 to 40 nM.

Take `CCOC(=O)Nc1ccc(C2c3[nH]c4ccc(Cl)cc4c3CCN2C(=O)Oc2ccc(Cl)cc2)cc1` (stereo not shown) [Compound 467]: under “Homo sapiens”, the EC50 was in the range of 8 to 40 nM.

Take `CN(C)CCCOc1ccc(C2c3[nH]c4ccc(Cl)cc4c3CCN2C(=O)Oc2ccc(Br)cc2)cc1` (stereo not shown) [Compound 468]: the EC50 is 8 to 40 nM. As for `CCOC(=O)N1CCc2c([nH]c3ccc(Cl)cc23)C1c1ccc(C(=O)N2CCN(CCOC)CC2)cc1` (stereo not shown) [Compound 469], the EC50 (Homo sapiens) lay within 8 to 40 nM.

Consider `COCCOC(=O)Nc1ccc(C2c3[nH]c4ccc(Cl)cc4c3CCN2C(=O)Oc2ccc(Cl)cc2)cc1` (stereo not shown) [Compound 470], for which, where the note is “Homo sapiens”, the 50% effective concentration (EC50) is 8 to 40 nM. As to `CCOC(=O)N1CCc2c([nH]c3ccc(Cl)cc23)C1CC(C)C` (stereo not shown) [Compound 472], the EC50 (Homo sapiens) lay in the range of 8 to 40 nM.
